This is an account of results in patent US20090023884A1, “METHOD FOR STORAGE AND/OR TRANSPORT OF BISPHENOLACETONE AND METHOD FOR PRODUCING AROMATIC POLYCARBONATE” (priority 2007, published 2009).

Holding throughout (assay type): physicochemical
The nature of series [1]: Stability experiments: 4-isopropenyl phenol (IPP) formation in BPA solutions by GC-MS. To be noted: for IPP signal intensity where solvent is acetone / IPP signal intensity where solvent is phenol: BPA:solvent 6:4 by weight, GC-MS m/z=134 relative to untreated standard BPA sample. As for the experimental part: BPA and a solvent were mixed to produce solutions (containing no solids) having a weight ratio of BPA to solvent of 6:4. The solvent was either acetone (present invention) or phenol (comparative). Where the solvent was acetone the solution was obtained at a temperature of 35° C. and then kept at that temperature. However, in view of the above solubility experiments, where the solvent was phenol the solution could only be obtained at a temperature of 120° C. and was then kept at that temperature. The solutions were heated for a certain time period (3, 7 or 14 days) at either 35° C. (acetone) or 120° C. (phenol). At the end of each time period, the amount of 4-isopropenyl phenol (IPP) was determined by means of GC-MS. Table 2 mentions the intensity of the GC-MS signal at m/z=134, which signal is characteristic for IPP, relative to a standard BPA sample that had not been subjected to said temperature treatment.

The nature of series [2]: Solubility experiments: BPA dissolved in acetone or phenol in oil bath at set temperature. To be noted: weight ratio BPA to solvent 7.5/2.5. As to the method:
0.6 gram of bisphenolacetone (BPA) powder was placed in a 10 ml graduated tube with a thread seal. Prior to the experiment, BPA flakes were crushed to said powder to ensure uniform packing density at the bottom of the tube. Then 0.2 gram of a solvent was added to the BPA. The solvent was either acetone (present invention) or phenol (comparative). Thus, the weight ratio of BPA to solvent was 7.5/2.5. The tube was then immersed in an oil bath at a certain temperature, and mixed up to full equilibrium. The foregoing was repeated except that the temperature of the oil bath was set at different values. Table 1 mentions the amounts of BPA dissolved in either acetone or phenol at temperatures ranging from 30 to 110° C. The amount of BPA dissolved was calculated from the loss of BPA from the solids layer at the bottom of the tube.

A short description of series [3]: Extended storage of acetone/bisphenolacetone liquid mixture at storage temperature range. The settings on record: liquid mixture with acetone.

Consider `CC(C)(c1ccc(O)cc1)c1ccc(O)cc1` [BPA, 2,2-bis(4-hydroxyphenyl)propane], for which the “IPP signal intensity where solvent is acetone” value amounted to 0.1 in series [1] (3 days at 35 °C), 0.0 in series [1] (7 days at 35 °C) and 0.0 in series [1] (14 days at 35 °C). The “IPP signal intensity where solvent is phenol” value worked out at 14.8 in series [1] (3 days at 120 °C), 22.3 in series [1] (7 days at 120 °C) and 35.0 in series [1] (14 days at 120 °C). For the same compound, in series [1] (solution in acetone, storage at 35 °C), the “thermal degradation of BPA” value is on record as “does not result in any substantial thermal degradation”. Further, in series [1] (solvent phenol, solution kept at 120 °C), the “thermal degradation of BPA into IPP” value is “thermally degraded into IPP”. Besides, the “Vol. % of BPA dissolved in acetone” value is on record as 61 Vol. % in series [2] (30 °C); 72 Vol. % in series [2] (60 °C); 72 Vol. % in series [2] (75 °C); 74 Vol. % in series [2] (90 °C); 74 Vol. % in series [2] (110 °C). Also, the “Vol. % of BPA dissolved in phenol” value in series [2] (60 °C) amounted to 0 Vol. %; in series [2] (75 °C), 0 Vol. %; in series [2] (90 °C), 0 Vol. %; in series [2] (110 °C) it was 61 Vol. %. For the same compound, the “bisphenolacetone and solution properties upon extended storage” value in series [3] is “remain unchanged”.
